In ChEMBL document CHEMBL5625192, “Discovery of Ibrutinib-based BTK PROTACs with in vivo anti-inflammatory efficacy by inhibiting NF-κB activation” (Eur J Med Chem, 2023):
In brackets after ≈: the same amount, converted by molar mass. Activity calls are given as the source filed them. The rule behind the calls is not given here.

What was measured:
[1] = molecular target: T1, Protein cereblon/Tyrosine-protein kinase BTK (Homo sapiens, UniProt Q06187+Q96SW2); test: PROTAC activity at CRBN/BTK in human Ramos cells assessed as induction of BTK degradation at 100 nM incubated for 24 hrs by Western blot analysis relative to control; type: cell-based
Target sequence in this assay (Q06187 2-659 limits assumed): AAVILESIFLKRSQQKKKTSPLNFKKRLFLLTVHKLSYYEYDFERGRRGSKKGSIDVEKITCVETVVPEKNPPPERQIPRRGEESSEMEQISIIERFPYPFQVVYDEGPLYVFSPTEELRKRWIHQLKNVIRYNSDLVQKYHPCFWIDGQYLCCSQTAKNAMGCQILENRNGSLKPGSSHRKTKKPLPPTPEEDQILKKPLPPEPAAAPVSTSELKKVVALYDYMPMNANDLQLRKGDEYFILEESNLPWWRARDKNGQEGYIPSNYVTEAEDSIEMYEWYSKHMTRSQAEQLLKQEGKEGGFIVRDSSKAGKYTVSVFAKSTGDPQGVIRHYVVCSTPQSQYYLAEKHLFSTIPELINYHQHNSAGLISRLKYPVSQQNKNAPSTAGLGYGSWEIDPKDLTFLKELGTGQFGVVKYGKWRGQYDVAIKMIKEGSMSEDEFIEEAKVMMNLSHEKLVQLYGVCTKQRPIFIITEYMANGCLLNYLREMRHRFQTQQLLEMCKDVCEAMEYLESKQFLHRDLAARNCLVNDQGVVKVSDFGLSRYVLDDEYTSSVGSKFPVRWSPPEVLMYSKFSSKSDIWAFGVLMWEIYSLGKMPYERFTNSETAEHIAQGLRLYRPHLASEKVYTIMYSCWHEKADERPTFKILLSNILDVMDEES
Target sequence in this assay (Q96SW2 whole entry partner): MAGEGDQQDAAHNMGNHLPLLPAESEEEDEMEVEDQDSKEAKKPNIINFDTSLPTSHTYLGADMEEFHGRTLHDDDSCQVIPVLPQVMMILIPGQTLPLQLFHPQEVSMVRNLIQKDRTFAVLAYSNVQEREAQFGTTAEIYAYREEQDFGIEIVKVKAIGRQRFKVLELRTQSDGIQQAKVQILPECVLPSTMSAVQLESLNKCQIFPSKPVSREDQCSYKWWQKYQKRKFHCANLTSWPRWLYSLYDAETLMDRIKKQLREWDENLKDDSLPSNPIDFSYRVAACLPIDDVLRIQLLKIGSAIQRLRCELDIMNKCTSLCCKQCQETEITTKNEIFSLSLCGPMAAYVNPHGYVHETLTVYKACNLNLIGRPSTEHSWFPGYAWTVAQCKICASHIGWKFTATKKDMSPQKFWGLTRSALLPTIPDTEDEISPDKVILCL

[2] = molecular target: T1, Protein cereblon/Tyrosine-protein kinase BTK; test: PROTAC activity at CRBN/BTK in human Ramos cells assessed as induction of BTK degradation incubated for 24 hrs by Western blot analysis; type: cell-based
Target sequence in this assay (Q06187 whole entry): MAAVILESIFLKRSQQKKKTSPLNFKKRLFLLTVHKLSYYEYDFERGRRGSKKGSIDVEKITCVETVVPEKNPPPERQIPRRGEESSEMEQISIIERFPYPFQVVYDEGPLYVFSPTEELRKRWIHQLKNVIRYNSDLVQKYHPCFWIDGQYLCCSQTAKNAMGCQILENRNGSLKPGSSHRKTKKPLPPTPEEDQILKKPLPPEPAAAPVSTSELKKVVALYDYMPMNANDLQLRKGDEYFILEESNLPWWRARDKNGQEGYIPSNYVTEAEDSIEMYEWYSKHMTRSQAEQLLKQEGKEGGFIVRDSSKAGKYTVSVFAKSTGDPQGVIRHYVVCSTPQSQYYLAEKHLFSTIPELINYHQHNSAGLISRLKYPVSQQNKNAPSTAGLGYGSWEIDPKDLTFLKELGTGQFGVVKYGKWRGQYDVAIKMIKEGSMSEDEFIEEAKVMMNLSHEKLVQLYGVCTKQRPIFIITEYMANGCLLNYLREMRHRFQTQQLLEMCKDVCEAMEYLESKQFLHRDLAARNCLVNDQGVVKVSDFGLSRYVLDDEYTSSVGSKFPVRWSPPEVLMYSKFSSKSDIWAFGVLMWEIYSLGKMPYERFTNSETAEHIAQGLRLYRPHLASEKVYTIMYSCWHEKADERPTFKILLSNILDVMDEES
Target sequence in this assay (Q96SW2 whole entry): as the sequence (Q96SW2 whole entry partner) above

[3] = molecular target: T1, Protein cereblon/Tyrosine-protein kinase BTK; test: PROTAC activity at CRBN/BTK in human Ramos cells assessed as induction of BTK degradation by measuring maximal efficacy incubated for 24 hrs by Western blot analysis relative to control; type: cell-based
Target sequence in this assay (Q06187 2-659 limits assumed): as the sequence (Q06187 2-659 limits assumed) above
Target sequence in this assay (Q96SW2 whole entry partner): as the sequence (Q96SW2 whole entry partner) above

[4] = molecular target: T1, Protein cereblon/Tyrosine-protein kinase BTK; test: PROTAC activity at CRBN/BTK in human Ramos cells assessed as hook effect at 10000 nM incubated for 24 hrs by Western blot analysis; type: cell-based
Target sequence in this assay (Q06187 2-659 limits assumed): as the sequence (Q06187 2-659 limits assumed) above
Target sequence in this assay (Q96SW2 whole entry partner): as the sequence (Q96SW2 whole entry partner) above

[5] = molecular target: T1, Protein cereblon/Tyrosine-protein kinase BTK; test: PROTAC activity at CRBN/BTK in human MINO cells assessed as induction of BTK degradation incubated for 24 hrs by Western blot analysis; type: cell-based
Target sequence in this assay (Q06187 whole entry): as the sequence (Q06187 whole entry) above
Target sequence in this assay (Q96SW2 whole entry): as the sequence (Q96SW2 whole entry partner) above

[6] = molecular target: T1, Protein cereblon/Tyrosine-protein kinase BTK; test: PROTAC activity at CRBN/BTK in human MINO cells assessed as induction of BTK degradation by measuring maximal efficacy incubated for 24 hrs by Western blot analysis relative to control; type: cell-based
Target sequence in this assay (Q06187 2-659 limits assumed): as the sequence (Q06187 2-659 limits assumed) above
Target sequence in this assay (Q96SW2 whole entry partner): as the sequence (Q96SW2 whole entry partner) above

[7] = molecular target: T1, Protein cereblon/Tyrosine-protein kinase BTK; test: PROTAC activity at CRBN/BTK in human MINO cells assessed as hook effect upto 10000 nM incubated for 24 hrs by Western blot analysis; type: cell-based
Target sequence in this assay (Q06187 2-659 limits assumed): as the sequence (Q06187 2-659 limits assumed) above
Target sequence in this assay (Q96SW2 whole entry partner): as the sequence (Q96SW2 whole entry partner) above

[8] = molecular target: T1, Protein cereblon/Tyrosine-protein kinase BTK; test: PROTAC activity at CRBN/BTK in human Ramos cells assessed as induction of BTK degradation at 100 nM measured within 4 hrs by Western blot analysis; type: cell-based
Target sequence in this assay (Q06187 2-659 limits assumed): as the sequence (Q06187 2-659 limits assumed) above
Target sequence in this assay (Q96SW2 whole entry partner): as the sequence (Q96SW2 whole entry partner) above

[9] = molecular target: T1, Protein cereblon/Tyrosine-protein kinase BTK; test: PROTAC activity at CRBN/BTK in human Ramos cells assessed as induction of BTK degradation at 100 nM measured after 8 hrs by Western blot analysis relative to control; type: cell-based
[10] = molecular target: T1, Protein cereblon/Tyrosine-protein kinase BTK; test: PROTAC activity at CRBN/BTK in human Ramos cells assessed as induction of BTK degradation at 100 nM pretreated with ibrutinib for 2 hrs followed by compound treatment and measured after 8 hrs by Western blot analysis; type: cell-based
[11] = molecular target: T1, Protein cereblon/Tyrosine-protein kinase BTK; test: PROTAC activity at CRBN/BTK in human Ramos cells assessed as induction of BTK degradation at 100 nM pretreated with pomalidomide for 2 hrs followed by compound treatment and measured after 8 hrs by Western blot analysis; type: cell-based
[12] = molecular target: T1, Protein cereblon/Tyrosine-protein kinase BTK; test: PROTAC activity at CRBN/BTK in human Ramos cells assessed as induction of BTK degradation at 100 nM pretreated with MG132 for 2 hrs followed by compound treatment and measured after 8 hrs by Western blot analysis; type: cell-based
[13] = molecular target: T1, Protein cereblon/Tyrosine-protein kinase BTK; test: PROTAC activity at CRBN/BTK in human Ramos cells assessed as induction of BTK degradation at 100 nM pretreated with bafilomycin for 2 hrs followed by compound treatment and measured after 8 hrs by Western blot analysis; type: cell-based
[14] = molecular target: T1, Protein cereblon/Tyrosine-protein kinase BTK; test: PROTAC activity at CRBN/BTK in human Ramos cells assessed as induction of BTK degradation at 100 nM pretreated with compound for 24 hrs followed by compound washout and measured upto 48 hrs by Western blot analysis; type: cell-based
RAW264.7 [15] = test: Cytotoxicity against mouse RAW264.7 cells assessed as reduction in cell viability upto 10 uM incubated for 24 hrs by CCK8 assay; type: toxicity, cell-based; details: raw264.7, 24 h
[16] = molecular target: Protein cereblon/Tyrosine-protein kinase BTK (Mus musculus) (UniProt P35991+Q8C7D2); test: PROTAC activity at CRBN/BTK in mouse RAW264.7 cells assessed as induction of BTK degradation by Western blot analysis; type: cell-based; details: dose 0.1-10 µM
RAW264.7 [17] = test: Inhibition of NF-kappaB activation in LPS-stimulated mouse RAW264.7 cells assessed as reduction in phosphorylated BTK level at 0.1 to 10 uM preincubated with compound for 1 hrs followed by LPS stimulation and measured after 24 hrs by Western blot analysis; type: cell-based; details: dose 0.1-10 µM, time 25.0 hrs
RAW264.7 [18] = test: Inhibition of NF-kappaB activation in LPS-stimulated mouse RAW264.7 cells assessed as reduction in phosphorylated p65 level at 0.1 to 10 uM preincubated with compound for 1 hrs followed by LPS stimulation and measured after 24 hrs by Western blot analysis; type: cell-based; details: dose 0.1-10 µM, time 25.0 hrs
RAW264.7 [19] = test: Inhibition of NF-kappaB activation in LPS-stimulated mouse RAW264.7 cells assessed as prevention of IkappaB-alpha degradation at 0.1 to 10 uM preincubated with compound for 1 hrs followed by LPS stimulation and measured after 24 hrs by Western blot analysis; type: cell-based; details: dose 0.1-10 µM, time 25.0 hrs
RAW264.7 [20] = test: Inhibition of NF-kappaB activation in LPS-stimulated mouse RAW264.7 cells assessed as inhibition of IkappaB-alpha phosphorylation at 0.1 to 10 uM preincubated with compound for 1 hrs followed by LPS stimulation and measured after 24 hrs by Western blot analysis; type: cell-based; details: dose 0.1-10 µM, time 25.0 hrs
RAW264.7 [21] = test: Anti-inflammatory activity in LPS-stimulated mouse RAW264.7 cells assessed as reduction in IL-1beta mRNA level preincubated with compound for 2 hrs followed by LPS stimulation and measured after 3 hrs […]; type: functional, cell-based; details: dose 0.1-10 µM, time 5.0 hrs
RAW264.7 [22] = test: Anti-inflammatory activity in LPS-stimulated mouse RAW264.7 cells assessed as reduction in IL-1beta secretion at 0.1 to 10 uM preincubated with compound for 2 hrs followed by LPS stimulation and measured after 3 hrs by ELISA analysis; type: functional, cell-based; details: dose 0.1-10 µM, time 5.0 hrs
RAW264.7 [23] = test: Anti-inflammatory activity in LPS-stimulated mouse RAW264.7 cells assessed as reduction in IL-6 mRNA level preincubated with compound for 2 hrs followed by LPS stimulation and measured after 3 hrs […]; type: functional, cell-based; details: dose 0.1-10 µM, time 5.0 hrs
RAW264.7 [24] = test: Anti-inflammatory activity in LPS-stimulated mouse RAW264.7 cells assessed as reduction in IL-6 secretion at 0.1 to 10 uM preincubated with compound for 2 hrs followed by LPS stimulation and measured after 3 hrs by ELISA analysis; type: functional, cell-based; details: dose 0.1-10 µM, time 5.0 hrs
Mus musculus [25] = test: Anti-inflammatory activity in zymosan-induced peritonitis C57BL/6J mouse model assessed as reduction in myeloid cells in peritoneal cavity preadministered intraperitoneally with compound for 1 hrs followed by zymosan administration and measured after 16 hrs by trypan blue staining based optical microscopic analysis; type: functional, organism-based; details: dose 10-50 mg/kg, route ip, time 17.0 hrs
Mus musculus [26] = test: Anti-inflammatory activity in zymosan-induced peritonitis C57BL/6J mouse model assessed as decrease in IL-1beta level in peritoneal cavity preadministered intraperitoneally with compound for 1 hrs followed by zymosan administration and measured after 16 hrs by ELISA; type: functional, organism-based; details: dose 10-50 mg/kg, route ip, time 17.0 hrs
Mus musculus [27] = test: Anti-inflammatory activity in zymosan-induced peritonitis C57BL/6J mouse model assessed as decrease in IL-6 level in peritoneal cavity preadministered intraperitoneally with compound for 1 hrs followed by zymosan administration and measured after 16 hrs by ELISA; type: functional, organism-based; details: dose 10-50 mg/kg, route ip, time 17.0 hrs
[28] = AUC (0 to t) in Sprague-Dawley rat at 2 mg/kg, iv measured after 48 hrs by UPLC analysis; type: ADME, organism-based; details: in vivo
[29] = AUC (0 to infinity) in Sprague-Dawley rat at 2 mg/kg, iv measured after 48 hrs by UPLC analysis; type: ADME, organism-based; details: in vivo
[30] = MRT (0 to t) in Sprague-Dawley rat at 2 mg/kg, iv measured after 48 hrs by UPLC analysis; type: ADME, organism-based; details: in vivo
[31] = MRT (0 to infinity) in Sprague-Dawley rat at 2 mg/kg, iv measured after 48 hrs by UPLC analysis; type: ADME, organism-based; details: in vivo
[32] = Half-life in Sprague-Dawley rat at 2 mg/kg, iv measured after 48 hrs by UPLC analysis; type: ADME, organism-based; details: in vivo
[33] = Apparent volume of distribution in Sprague-Dawley rat at 2 mg/kg, iv measured after 48 hrs by UPLC analysis; type: ADME, organism-based; details: in vivo, read-out: Vz
[34] = Clearance in Sprague-Dawley rat at 2 mg/kg, iv measured after 48 hrs by UPLC analysis; type: ADME, organism-based; details: in vivo
[35] = Cmax in Sprague-Dawley rat at 2 mg/kg, iv measured after 48 hrs by UPLC analysis; type: ADME, organism-based; details: in vivo
[36] = AUC (0 to t) in Sprague-Dawley rat at 20 mg/kg, po by UPLC analysis; type: ADME, organism-based; details: in vivo
[37] = AUC (0 to infinity) in Sprague-Dawley rat at 20 mg/kg, po by UPLC analysis; type: ADME, organism-based; details: in vivo
[38] = MRT (0 to t) in Sprague-Dawley rat at 20 mg/kg, po by UPLC analysis; type: ADME, organism-based; details: in vivo
[39] = MRT (0 to infinity) in Sprague-Dawley rat at 20 mg/kg, po by UPLC analysis; type: ADME, organism-based; details: in vivo
[40] = Half-life in Sprague-Dawley rat at 20 mg/kg, po by UPLC analysis; type: ADME, organism-based; details: in vivo
[41] = Cmax in Sprague-Dawley rat at 20 mg/kg, po by UPLC analysis; type: ADME, organism-based; details: in vivo
[42] = Oral bioavailability in Sprague-Dawley rat at 20 mg/kg by UPLC analysis; type: ADME, organism-based; details: in vivo
[43] = Aqueous solubility of compound incubated for 24 hrs by HPLC based shake flask method; type: physicochemical; details: buffer

Chain of Protein cereblon/Tyrosine-protein kinase BTK (Mus musculus) (P35991 whole entry, looked up): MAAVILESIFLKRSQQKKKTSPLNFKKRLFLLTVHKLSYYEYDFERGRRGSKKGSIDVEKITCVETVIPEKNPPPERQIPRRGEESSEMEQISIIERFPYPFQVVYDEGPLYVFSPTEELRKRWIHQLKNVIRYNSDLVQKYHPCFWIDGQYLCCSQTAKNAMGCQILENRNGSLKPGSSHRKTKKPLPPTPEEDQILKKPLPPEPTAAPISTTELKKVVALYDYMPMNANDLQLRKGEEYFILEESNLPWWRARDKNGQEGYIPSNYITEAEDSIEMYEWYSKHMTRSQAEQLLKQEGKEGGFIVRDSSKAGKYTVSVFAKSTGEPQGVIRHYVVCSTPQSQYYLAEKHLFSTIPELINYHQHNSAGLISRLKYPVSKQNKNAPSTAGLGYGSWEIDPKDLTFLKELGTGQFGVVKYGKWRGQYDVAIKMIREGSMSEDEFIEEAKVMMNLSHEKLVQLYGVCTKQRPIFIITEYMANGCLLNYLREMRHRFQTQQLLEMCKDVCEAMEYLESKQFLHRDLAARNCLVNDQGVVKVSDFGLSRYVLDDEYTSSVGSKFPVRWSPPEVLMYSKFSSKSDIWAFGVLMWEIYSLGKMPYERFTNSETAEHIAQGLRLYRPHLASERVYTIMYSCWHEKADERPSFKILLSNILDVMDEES
Chain of Protein cereblon/Tyrosine-protein kinase BTK (Mus musculus) (Q8C7D2 whole entry, looked up): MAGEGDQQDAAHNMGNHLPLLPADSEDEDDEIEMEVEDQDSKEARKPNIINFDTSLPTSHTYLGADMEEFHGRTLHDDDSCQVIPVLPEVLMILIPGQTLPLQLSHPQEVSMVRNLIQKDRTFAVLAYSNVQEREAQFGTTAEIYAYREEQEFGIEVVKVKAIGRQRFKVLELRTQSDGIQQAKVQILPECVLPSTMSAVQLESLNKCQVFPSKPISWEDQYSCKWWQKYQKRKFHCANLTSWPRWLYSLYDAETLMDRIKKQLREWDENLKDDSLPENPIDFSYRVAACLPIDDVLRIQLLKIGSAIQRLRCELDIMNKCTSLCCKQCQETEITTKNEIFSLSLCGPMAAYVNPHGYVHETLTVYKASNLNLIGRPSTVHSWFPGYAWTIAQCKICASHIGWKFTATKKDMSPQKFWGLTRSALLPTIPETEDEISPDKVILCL

Activity [1]: 99.4% | EC50 [2]: 3.18 nM | Emax [3]: 99.9% | Activity [4]: Active | EC50 [5]: 7.07 nM | Emax [6]: 100% | Activity [7]: inactive | Activity [8]: Active | Activity [9]: 100% | Activity [10]: inactive | Activity [11]: inactive | Activity [12]: inactive | Activity [13]: Active | Activity [14]: Active | Activity [16]: Dose-Dependent Effect | AUC(0-t) at 48 h [28]: 926 ng·h/mL | AUC(0-inf) [29]: 934 ng·h/mL | MRT last at 48 h [30]: 1.27 h | MRT inf [31]: 1.37 h | half-life [32]: 1.82 h | Vd [33]: 5.85 L/kg | clearance [34]: 37.5 mL/min/kg | Cmax [35]: 1890 ng/mL | AUC(0-t) [36]: 27.1 ng·h/mL | AUC(0-inf) [37]: 29 ng·h/mL | MRT last [38]: 4.95 h | MRT inf [39]: 5.23 h | half-life [40]: 2.12 h | Cmax [41]: 9.7 ng/mL | bioavailability [42]: 0.25% | solubility thermodynamic at 24 h [43]: 8.16 µg/mL (≈ 9.74 µM)
SMILES: Nc1ncnc2c1c(-c1ccc(Oc3ccccc3)cc1)nn2C1CCN(C(=O)CN2CCN(CC3CN(c4ccc5c(c4)C(=O)N(C4CCC(=O)NC4=O)C5=O)C3)CC2)CC1 (stereo not drawn)
Activity (RAW264.7 [15]): Non-Toxic | inhibition (RAW264.7 [17]): Active | inhibition (RAW264.7 [18]): Active | inhibition (RAW264.7 [19]): Active | inhibition (RAW264.7 [20]): Active | Activity (RAW264.7 [21]): Dose-Dependent Effect | Activity (RAW264.7 [22]): Active | Activity (RAW264.7 [23]): Dose-Dependent Effect | Activity (RAW264.7 [24]): Active | Activity (Mus musculus [25]): Dose-Dependent Effect | Activity (Mus musculus [26]): Dose-Dependent Effect | Activity (Mus musculus [27]): Dose-Dependent Effect
